Measurements: US20100291204A1, “COMBINATION OF A LONG-ACTING HYPNOTIC AGENT AND A SHORT-ACTING HYPNOTIC AGENT AND THERAPEUTIC USE THEREOF” (SANOFI-AVENTIS, priority 2005, published 2010)
Marks after values point to notes of the source that are not given here.

Key:
male Sprague-Dawley rats = assay: Effects on sleep in rats (6 hours of recording, day 1 versus vehicle day 0); format: in vivo, rat; details: for Lag time of appearance of NREM sleep: change versus vehicle control; for Duration of NREM sleep / Duration of sleep: total over 6 hours of recording
Description: For this study, four groups of male Sprague-Dawley rats are used, each group comprising from 5 to 9 rats.
Group A receives eplivanserin (oral route, hemifumarate) at a dose of 3 mg/kg p.o.
Group B receives zolpidem (oral route, hemitartrate) at a dose of 3 mg/kg p.o.
Group C receives (orally) in combination 3 mg/kg p.o. of eplivanserin hemifumarate and 3 mg/kg of zolpidem hemitartrate, the two compounds being administered with an interval of 5 minutes.
Finally, group D receives zolpidem (oral route, hemitartrate) at a dose of 10 mg/kg p.o.
The data are recorded on day 0 (control day), when the animals receive only a vehicle (distilled water and methylcellulose) and on day 1 when the animals receive the active principles.
The data are recorded for 6 hours each day, the active principles being administered 15 minutes before the start of recording.
In Table I, the results are expressed as percentages relative to the control groups receiving only the vehicle, unless otherwise indicated.
Duration of sleep: total duration of sleep during the 6 hours of recording. Duration of NREM sleep: total duration of NREM sleep during the 6 hours of recording. Lag time of appearance of NREM sleep: time measured from the start of the recording up to the moment of the first period of NREM sleep. Mean duration of the periods of NREM sleep: duration of NREM sleep/number of periods of NREM sleep during the 6 hours of recording.

[1] = cited from earlier work; for bioavailability: in vivo
[2] = Group B: zolpidem hemitartrate 3 mg/kg p.o., relative to vehicle control
[3] = Group D: zolpidem hemitartrate 10 mg/kg p.o., 6 hours of recording, relative to vehicle control
[4] = Group D: zolpidem hemitartrate 10 mg/kg p.o., relative to vehicle control

Row | SMILES | Lag time of appearance of NREM sleep (male Sprague-Dawley rats; Group A: eplivanserin hemifumarate 3 mg/kg p.o., from start of recording to first period of NREM sleep) | bioavailability [1] [%] | Mean duration of the periods of NREM sleep (male Sprague-Dawley rats; Group B: zolpidem hemitartrate 3 mg/kg p.o., 6 hours of recording, relative to vehicle control) [%] | Lag time of appearance of NREM sleep (male Sprague-Dawley rats; Group B: zolpidem hemitartrate 3 mg/kg p.o., from start of recording to first period of NREM sleep) [min] | Duration of NREM sleep (male Sprague-Dawley rats; [2]) | Duration of sleep (male Sprague-Dawley rats; [2]) [%] | Mean duration of the periods of NREM sleep (male Sprague-Dawley rats; [3]) | Mean number of periods of NREM sleep (male Sprague-Dawley rats; [3]) | Lag time of appearance of NREM sleep (male Sprague-Dawley rats; Group D: zolpidem hemitartrate 10 mg/kg p.o.) [min] | Duration of NREM sleep (male Sprague-Dawley rats; [4]) | Duration of sleep (male Sprague-Dawley rats; [4]) [%**] | duration of action ([1]; mean dose between 5 and 10 mg in a conventional formulation)
1 | CN(C)CCO/N=C(/C=C/c1ccc(O)cc1)c1ccccc1F [eplivanserin] | +0.6 min | 80 | – | – | – | – | – | – | – | – | – | –
2 | Cc1ccc(-c2nc3ccc(C)cn3c2CC(=O)N(C)C)cc1 [zolpidem] | – | 70 | −15 | -6 | +4% | −2 | +31%** | +1% | -1.2 | +33%** | −20 | up to 6 hours
